Assay results published in the supplement of paper PMC10307832.

Assays:
Experiment in all cases: relative viability (nuclei count vs DMSO), 5 days (fraction); higher = more cells survive
[1] = compound: C1/C(=C\C2=CC=CS2)/C(=O)/C(=C/C3=CC=CS3)/C1 + CC(=O)c1c(C)c2cnc(Nc3ccc(N4CCNCC4)cn3)nc2n(C2CCCC2)c1=O [Palbociclib] (partner 0.5 µM)
Summary of the method: (§1)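 Cells from lung cancer lines were seeded into 1536-well plates and, one day later, dosed by pin tool. Treatments were either a single drug or a fixed dose of an anchor drug with five library-drug doses (not always all listed) in √10 steps. After 5 days, nuclei were stained in a one-step fixation (final 0.05% Triton X-100, 1% formaldehyde, 1 ug/ml Hoechst) and counted on 4× images, and relative viability is the treated-to-vehicle nuclei ratio, as the median of duplicate plates.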

[2] = compound: C1=CC(=CC=C1C2=CC(=C(S2)NC(=O)N)C(=O)N)F [TPCA-1] + N=C(N)NC(=N)NCCc1ccccc1 [Phenformin] (partner 250 µM)
Summary of the method: as §1

[3] = compound: C1=CC(=CC=C1C2=CC(=C(S2)NC(=O)N)C(=O)N)F [TPCA-1] + O=C(c1cc(Cc2n[nH]c(=O)c3ccccc23)ccc1F)N1CCN(C(=O)C2CC2)CC1 [Olaparib] (partner 8 µM)
Summary of the method: as §1

[4] = compound: C[C@]12O[C@H](C[C@]1(O)CO)n1c3ccccc3c3c4c(c5c6ccccc6n2c5c31)CNC4=O [Lestaurtinib] + N=C(N)NC(=N)NCCc1ccccc1 [Phenformin] (partner 250 µM)
Summary of the method: as §1

Row | Cell Line | relative viability ([1]; first compound 0.2 µM) | relative viability ([1]; first compound 0.6325 µM) | relative viability ([1]; first compound 2 µM) | relative viability ([1]; first compound 6.325 µM) | relative viability ([1]; first compound 20 µM) | relative viability ([2]; first compound 0.04 µM) | relative viability ([2]; first compound 0.1265 µM) | relative viability ([2]; first compound 0.4 µM) | relative viability ([2]; first compound 1.265 µM) | relative viability ([2]; first compound 4 µM) | relative viability ([3]; first compound 0.04 µM) | relative viability ([3]; first compound 0.1265 µM) | relative viability ([3]; first compound 0.4 µM) | relative viability ([3]; first compound 1.265 µM) | relative viability ([3]; first compound 4 µM) | relative viability ([4]; first compound 0.005 µM) | relative viability ([4]; first compound 0.01581 µM) | relative viability ([4]; first compound 0.05 µM) | relative viability ([4]; first compound 0.1581 µM) | relative viability ([4]; first compound 0.5 µM)
1 | ABC-1 | 0.707 | 0.614 | 0.886 | 0.64 | 0.513 | 0.292 | 0.22 | 0.197 | 0.211 | 0.203 | 1.43 | 0.676 | 0.97 | 0.789 | 0.788 | 0.251 | 0.252 | 0.243 | 0.199 | 0.166
2 | IA-LM |  |  |  |  |  |  |  |  |  |  | 0.818 | 0.834 | 0.846 | 0.765 | 0.72 |  |  |  |  | 
3 | NCI-H322M | 0.517 | 0.508 | 0.529 | 0.431 | 0.468 | 0.922 | 0.7 | 0.797 | 0.795 | 0.375 | 0.78 | 0.785 | 0.77 | 0.73 | 0.41 | 0.689 | 0.694 | 0.478 | 0.517 | 0.393
4 | NCI-H1792 | 0.665 | 0.656 | 0.713 | 0.331 | 0.627 | 0.326 | 0.246 | 0.322 | 0.217 | 0.158 | 0.432 | 0.281 | 0.382 | 0.352 | 0.202 |  | 0.423 | 0.3 | 0.179 | 0.178
5 | LXF-289 | 0.648 | 0.615 | 0.567 | 0.577 | 0.56 | 0.551 | 0.489 | 0.532 | 0.447 | 0.308 | 1.09 | 0.94 | 1.12 | 1.06 | 0.735 | 0.515 | 0.498 | 0.42 | 0.302 | 0.213
